Paper PMC6328587 (Nature Communications, 2019)
Where two headings read alike, the source gives them in different places.

Columns and labels:
JNK1 = JNK1 degradation, western blot in MDA-MB-231 cells; type: cell-based, human; details: 0.025-2.5 µM
Description: (§1) […] once with ice-cold PBS (1 × ), followed by lysis in buffer containing 25 mM Tris [pH 7.5], 0.25% sodium deoxycholate, 1% Triton X-100, supplemented with 1X protease inhibitor cocktail (Roche), and phosphatase inhibitors (10 mM NaF, 1 mM Na3VO4, and 20 mM β-glycerophosphate), unless otherwise noted. Lysates were spun at 14,000 × g for 10 min at 4 °C and supernatant was evaluated for protein content using a Pierce BCA Protein Assay (ThermoFisher Scientific). In all experiments, 25–50 μg of protein was loaded onto 10% SDS-PAGE gels or 4–20% Criterion TGX precast gradient gels (Bio-Rad), transferred to nitrocellulose membranes, and probed with the specified antibodies overnight at 4 °C in 1X TBS-Tween (Tris-buffered saline plus 0.02% Tween 20) containing 5% non-fat milk. Immunoblots were visualized using a Bio-Rad ChemiDoc imaging instrument and subsequently processed and quantified using the accompanying Bio-Rad ImageLab software. See Supplementary Figure 8 for uncropped scans of western blots shown in the main text figures.
(§2) Supplementary Figure 4 cont.
(§3) Supplementary Figure 4. Characterization of M APK fam ily degradation selectivity (related to Figures 1-2). (a) p38 M APK fam ily m em bers (α, β, δ, γ) were aligned using the T-Coffee multiple sequence alignm ent server. […] Note: JNK1 and JNK2 are expressed as two alternatively-spliced form s. […]

[1] = target: T1, p38δ:PROTAC:VHL ternary complex (Homo sapiens, UniProt O15264+P40337); experiment: In vitro ternary complex pull-down, GST-VBC bait, purified p38δ; type: binding; details: dose-dependent
T1 construct: encoding a region spanning amino acids 1–365; His6 (N); made in house; host or cells: E. coli BL21-CodonPlus(DE3)-RIPL (p38δ); E. coli BL21(DE3) (GST-VBC)
T1 sequence (O15264 whole entry, the tested form may be a part): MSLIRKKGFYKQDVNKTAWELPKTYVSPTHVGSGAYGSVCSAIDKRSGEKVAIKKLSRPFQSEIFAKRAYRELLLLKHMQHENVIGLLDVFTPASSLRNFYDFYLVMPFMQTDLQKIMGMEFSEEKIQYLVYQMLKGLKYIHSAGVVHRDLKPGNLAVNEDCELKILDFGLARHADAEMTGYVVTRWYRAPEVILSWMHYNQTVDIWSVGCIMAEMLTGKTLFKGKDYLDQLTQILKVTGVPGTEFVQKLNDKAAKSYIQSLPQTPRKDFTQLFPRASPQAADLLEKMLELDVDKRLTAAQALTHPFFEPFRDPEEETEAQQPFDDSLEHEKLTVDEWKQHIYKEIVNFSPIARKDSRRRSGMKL
T1 sequence (P40337 whole entry, the tested form may be a part): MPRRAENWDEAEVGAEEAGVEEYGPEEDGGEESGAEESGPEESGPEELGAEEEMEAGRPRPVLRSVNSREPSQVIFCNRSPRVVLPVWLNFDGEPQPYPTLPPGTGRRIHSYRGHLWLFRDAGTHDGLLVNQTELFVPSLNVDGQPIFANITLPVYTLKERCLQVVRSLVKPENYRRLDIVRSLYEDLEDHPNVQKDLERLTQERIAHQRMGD
T1 sequence (Q15370 whole entry partner, the tested form may be a part): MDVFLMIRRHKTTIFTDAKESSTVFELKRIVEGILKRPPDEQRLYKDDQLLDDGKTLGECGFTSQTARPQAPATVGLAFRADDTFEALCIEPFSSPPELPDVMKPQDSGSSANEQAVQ
T1 sequence (Q15369 whole entry partner, the tested form may be a part): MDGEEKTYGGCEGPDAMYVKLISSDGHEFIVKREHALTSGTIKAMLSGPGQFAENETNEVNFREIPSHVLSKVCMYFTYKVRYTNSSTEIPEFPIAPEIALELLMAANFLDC
Description: (§4) Glutathione Sepharose 4B (Glutathione-conjugated beads in a slurry containing 20% ethanol) were washed twice with 1X wash buffer (50 mM HEPES pH 7.5, 150 mM NaCl, 1 mM DTT, 0.01% NP40, 5 mM MgCl2, 10% Glycerol) and then blocked for 1 h at room temperature with 10% bovine serum albumin (BSA) in wash buffer. The beads were then washed again three times with wash buffer and then purified GST-VBC (stable form of VHL complexed with EloB/EloC, described above) was immobilized for 1 h at 4 °C at 3.6 pmole µL^–1 of beads. The beads were then washed three times with wash buffer, resuspended, divided into two equal volumes, and p38α or p38δ protein was added. The bead:p38 mixture was then aliquoted to separate tubes and PROTAC was added at the indicated concentration (PROTACs were intermediately diluted in 10% DMSO and 0.25% CHAPS). This mixture was incubated at 4 °C for 2 h. The beads were washed three times with 10 column volumes of wash buffer and then eluted with SDS loading buffer at 75 °C for 10 min.

JNK2 = JNK2 degradation, western blot in MDA-MB-231 cells; type: cell-based, human; details: 0.025-2.5 µM
Description: as §1, §2, §3

p38δ:PROTAC:VHL = target: T2, p38δ:PROTAC:VHL (Homo sapiens, UniProt O15264+P40337); experiment: SPR ternary binding, equimolar p38δ:PROTAC injected onto immobilized VHL; details: for p38δ:PROTAC:VHL t1/2: ternary complex half-life
T2 construct: encoding a region spanning amino acids 1–365; His6 (N); made in house; host or cells: E. coli BL21-CodonPlus(DE3)-RIPL (p38δ); E. coli BL21(DE3) (GST-VBC)
T2 sequence (O15264 whole entry, the tested form may be a part): as the sequence (O15264 whole entry, the tested form may be a part) above
T2 sequence (P40337 whole entry, the tested form may be a part): as the sequence (P40337 whole entry, the tested form may be a part) above
T2 sequence (Q15370 whole entry partner, the tested form may be a part): as the sequence (Q15370 whole entry partner, the tested form may be a part) above
T2 sequence (Q15369 whole entry partner, the tested form may be a part): as the sequence (Q15369 whole entry partner, the tested form may be a part) above
Description: SPR experiments were conducted on a Biacore 3000 instrument (GE Healthcare) at room temperature. GST antibody was immobilized through direct amination onto a carboxymethylated dextran surface (CM5) and GST-VBC was captured on the CM5 surface. This prepared surface was equilibrated over 3 h in running buffer (10 mM HEPES buffer pH 7.4, 150 mM NaCl, 0.4 mg mL^−1 BSA, 0.005% P20, 2% DMSO). All compounds were prepared in 100% DMSO stock plates with a top concentration of 500 µM in a 3× serial dilution. Compounds were transferred from the stock plate to the assay plate and diluted into running buffer without DMSO. Equimolar concentration of target protein was added to corresponding compound wells. All compounds were run as a 12-point concentration series with a final assay top concentration of 50 µM to measure p38δ:PROTAC and VHL:PROTAC binding and top concentration of 5 µM to measure p38δ:PROTAC:VHL binding. All compounds were injected for 60 s and allowed to dissociate for 300 s. Data analysis was performed in Scrubber 2 (BioLogic Software). Blanks from reference flow cell containing immobilized GST-VBC were subtracted to correct for noise and data were solvent-corrected against a standard DMSO curve. All reported Kd values represent an average of at least two replicates and were obtained by fitting to a minimum of five concentrations using a 1:1 fitting algorithm.

[2] = target: T3, p38α:PROTAC:VHL ternary complex (Homo sapiens, UniProt P40337+Q16539); experiment: In vitro ternary complex pull-down, GST-VBC bait, purified p38α; type: binding; details: all concentrations tested
T3 construct: The plasmid contains an N-terminal His6 tag and encodes a region spanning amino acids 2–360 of the human p38α kinase; made in house; host or cells: E. coli BL21-CodonPlus(DE3)-RIPL (p38α); E. coli BL21(DE3) (GST-VBC)
T3 sequence (Q16539 2-360 limits assumed): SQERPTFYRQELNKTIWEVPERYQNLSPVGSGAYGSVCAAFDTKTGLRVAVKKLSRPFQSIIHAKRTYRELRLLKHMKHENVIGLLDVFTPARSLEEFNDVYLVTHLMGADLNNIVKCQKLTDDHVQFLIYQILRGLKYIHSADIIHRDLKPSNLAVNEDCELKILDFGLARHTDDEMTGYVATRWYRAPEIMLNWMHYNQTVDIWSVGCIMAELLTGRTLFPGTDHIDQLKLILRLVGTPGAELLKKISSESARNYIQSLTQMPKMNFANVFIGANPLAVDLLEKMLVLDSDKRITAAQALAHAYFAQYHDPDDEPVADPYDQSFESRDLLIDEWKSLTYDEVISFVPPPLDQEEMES
T3 sequence (P40337 whole entry, the tested form may be a part): as the sequence (P40337 whole entry, the tested form may be a part) above
T3 sequence (Q15370 whole entry partner, the tested form may be a part): as the sequence (Q15370 whole entry partner, the tested form may be a part) above
T3 sequence (Q15369 whole entry partner, the tested form may be a part): as the sequence (Q15369 whole entry partner, the tested form may be a part) above
Description: as §4

[3] = SPR ternary, Replicate 2, read-out: koff
[4] = SPR, ternary, VHL immobilized, read-out: p38δ:PROTAC:VHL koff

| pull-down of purified p38δ on GST-VBC-coated beads [1] | ternary affinity weaker than the SJFδ-induced complex (p38δ:PROTAC:VHL; SPR) | koff (p38δ:PROTAC:VHL; SPR ternary, Replicate 1, read-out: koff) | koff (p38δ:PROTAC:VHL; [3]) | p38δ:PROTAC:VHL t1/2 (p38δ:PROTAC:VHL; SPR) | kon (p38δ:PROTAC:VHL; SPR, ternary, VHL immobilized) | koff (p38δ:PROTAC:VHL; [4]) | enrichment of purified p38α on GST-VBC bait [2] | leftward shift of ternary affinity from the VHL:PROTAC binary affinity (p38δ:PROTAC:VHL; SPR) | Kd (p38δ:PROTAC:VHL; SPR, Replicate 1) | Kd (p38δ:PROTAC:VHL; SPR, Replicate 2) | SMILES | JNK1 degradation (JNK1) | JNK2 degradation (JNK2) |
| --- | --- | --- | --- | --- | --- | --- | --- | --- | --- | --- | --- | --- | --- |
| can pull-down purified p38δ | ~ 3 fold | 0.083 s⁻¹ | 0.082 s⁻¹ | 8 s | 70100 M⁻¹ s⁻¹ | 0.072 s⁻¹ | substantial enrichment |  |  |  | COc1cc2c(Oc3ccc(NC(=O)C4(C(=O)Nc5ccc(F)cc5)CC4)cc3F)ccnc2cc1OCCCCOCCCCOCC(=O)N[C@H](C(=O)N1C[C@H](O)C[C@H]1C(=O)NCc1ccc(-c2scnc2C)cc1)C(C)(C)C [SJFα] | neither PROTAC degrades | neither PROTAC degrades |
| can pull-down purified p38δ |  |  | 0.017 s⁻¹ | 38 s | 39600 M⁻¹ s⁻¹ | 0.018 s⁻¹ | no detectable enrichment | ~ 8 fold | 358 nM | 514 nM | COc1cc2c(Oc3ccc(NC(=O)C4(C(=O)Nc5ccc(F)cc5)CC4)cc3F)ccnc2cc1OCCOCCOCCOc1cc(-c2scnc2C)ccc1CNC(=O)[C@@H]1C[C@@H](O)CN1C(=O)[C@H](C(C)C)N1Cc2ccccc2C1=O [SJFδ] | neither PROTAC degrades | neither PROTAC degrades |
